Where “and” joins values, the source holds several entries; their conditions need not be identical. Identical values can stand only once. Toxic doses and inconclusive results are not listed. Cut-off read from the data, not from the text of the source: active = T/C of 150% or more; inactive = T/C below 125%.
Test system: L1210 leukemia ip in BDF1 mice, survival T/C
Assay: NCI In Vivo Anticancer Drug Screen. Data for tumor model L1210 Leukemia (intraperitoneal) in B6D2F1 (BDF1) mice
Details: endpoint: mean survival time, higher = longer survival
How it was run: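 Mice bearing the transplanted tumor received compound or vehicle. Survival of the treated group was divided by that of the vehicle-treated control group to give the ratio.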

[1] = dose: 100.0 mg/kg/injection, schedule: Q01DX001 (ip), vehicle: other
[2] = dose: 200.0 mg/kg/injection, schedule: Q01DX001 (ip), vehicle: other
[3] = dose: 100.0 mg/kg/injection, schedule: Q01DX009 (ip), vehicle: saline with Tween-80
[4] = dose: 100.0 mg/kg/injection, schedule: Q04DX003 (ip), vehicle: saline with Tween-80
[5] = dose: 200.0 mg/kg/injection, schedule: Q01DX009 (ip), vehicle: saline with Tween-80
[6] = dose: 200.0 mg/kg/injection, schedule: Q04DX003 (ip), vehicle: saline with Tween-80
[7] = dose: 400.0 mg/kg/injection, schedule: Q04DX003 (ip), vehicle: saline with Tween-80
[8] = dose: 75.0 mg/kg/injection, schedule: Q04DX003 (ip), vehicle: Klucel (hydroxypropylcellulose) (HPC)
[9] = dose: 150.0 mg/kg/injection, schedule: Q04DX003 (ip), vehicle: Klucel (hydroxypropylcellulose) (HPC)
[10] = dose: 300.0 mg/kg/injection, schedule: Q04DX003 (ip), vehicle: Klucel (hydroxypropylcellulose) (HPC)
[11] = dose: 100.0 mg/kg/injection, schedule: Q01DX001 (ip), vehicle: saline
[12] = dose: 200.0 mg/kg/injection, schedule: Q01DX001 (ip), vehicle: saline
[13] = dose: 100.0 mg/kg/injection, schedule: Q01DX009 (ip), vehicle: Klucel (hydroxypropylcellulose) (HPC)
[14] = dose: 100.0 mg/kg/injection, schedule: Q04DX003 (ip), vehicle: Klucel (hydroxypropylcellulose) (HPC)
[15] = dose: 200.0 mg/kg/injection, schedule: Q04DX003 (ip), vehicle: Klucel (hydroxypropylcellulose) (HPC)
[16] = dose: 50.0 mg/kg/injection, schedule: Q01DX001 (ip), vehicle: carboxymethylcellulose (CMC)
[17] = dose: 100.0 mg/kg/injection, schedule: Q01DX001 (ip), vehicle: carboxymethylcellulose (CMC)
[18] = dose: 200.0 mg/kg/injection, schedule: Q01DX001 (ip), vehicle: carboxymethylcellulose (CMC)
[19] = dose: 400.0 mg/kg/injection, schedule: Q01DX001 (ip), vehicle: carboxymethylcellulose (CMC)
[20] = dose: 25.0 mg/kg/injection, schedule: Q01DX009 (ip), vehicle: saline with Tween-80
[21] = dose: 25.0 mg/kg/injection, schedule: Q04DX003 (ip), vehicle: saline with Tween-80
[22] = dose: 50.0 mg/kg/injection, schedule: Q01DX009 (ip), vehicle: saline with Tween-80
[23] = dose: 50.0 mg/kg/injection, schedule: Q04DX003 (ip), vehicle: saline with Tween-80

Measured: T/C

Clc1nc(Cl)c2c(ncn2Cc2ccccc2)n1
inactive: [1] 95 % of control | [2] 104 % of control

O=C(NS(=O)(=O)c1ccc(Cl)cc1)c1cccc2ccccc12
inactive: [3] 91 % of control

COC(=O)C(Nc1ccc([N+](=O)[O-])cc1[N+](=O)[O-])C(C)O (stereo not drawn)
inactive: [1] 104 % of control | [2] 101 % of control | dose: 400.0 mg/kg/injection, schedule: Q01DX001 (ip), vehicle: other 111 % of control

COc1cc(N=Nc2ccccc2C(=O)O)ccc1O
inactive: [3] 96 % of control | [4] 96 % of control | [5] 104 % of control | [6] 101 % of control | [7] 101 % of control

C=C(C)CNC(N)=S
inactive: [8] 98 % of control | dose: 100.0 mg/kg/injection, schedule: Q01DX001 (ip), vehicle: Klucel (hydroxypropylcellulose) (HPC) 105 % of control | [9] 89 % of control | dose: 200.0 mg/kg/injection, schedule: Q01DX001 (ip), vehicle: Klucel (hydroxypropylcellulose) (HPC) 98 % of control | [10] 110 % of control | dose: 400.0 mg/kg/injection, schedule: Q01DX001 (ip), vehicle: Klucel (hydroxypropylcellulose) (HPC) 105 % of control

C=CCOc1ccn(C)c(=O)n1
inactive: dose: 100.0 mg/kg/injection, schedule: Q01DX009 (ip), vehicle: saline 98 % of control | dose: 100.0 mg/kg/injection, schedule: Q04DX003 (ip), vehicle: saline 108 % of control | dose: 200.0 mg/kg/injection, schedule: Q01DX009 (ip), vehicle: saline 101 % of control | dose: 200.0 mg/kg/injection, schedule: Q04DX003 (ip), vehicle: saline 97 % of control | dose: 400.0 mg/kg/injection, schedule: Q01DX009 (ip), vehicle: saline 98 % of control | dose: 400.0 mg/kg/injection, schedule: Q04DX003 (ip), vehicle: saline 111 % of control

CCNc1ncnc2c1cnn2C
inactive: [11] 95 % of control | [12] 103 % of control | dose: 400.0 mg/kg/injection, schedule: Q01DX001 (ip), vehicle: saline 114 % of control

CC1CC(NC(=S)S)CC(C)(C)C1 (stereo not drawn)
inactive: dose: 25.0 mg/kg/injection, schedule: Q01DX009 (ip), vehicle: Klucel (hydroxypropylcellulose) (HPC) 93 % of control | dose: 50.0 mg/kg/injection, schedule: Q01DX009 (ip), vehicle: Klucel (hydroxypropylcellulose) (HPC) 95 % of control | [13] 97 % of control | [14] 93 % of control | [15] 96 % of control

Cc1cc(C)c(SSc2c(C)cc(C)cc2C)c(C)c1
inactive: dose: 50.0 mg/kg/injection, schedule: Q01DX001 (ip), vehicle: saline 106 % of control | [11] 104 % of control | [12] 100 % of control

O=S(OCCCl)OCCCl
inactive: [8] 91 % of control | [9] 102 % of control | [10] 98 % of control

O=CC(OC(=O)c1ccccc1)C(OC(=O)c1ccccc1)C(COC(c1ccccc1)(c1ccccc1)c1ccccc1)OC(=O)c1ccccc1 (stereo not drawn)
inactive: [16] 97 % of control | [17] 103 % of control | [18] 103 % of control | [19] 91 % of control

COc1ccc(CN2CCCN(Cc3ccc(OC)cc3OC)C2c2ccccc2OC)c(OC)c1
inactive: [16] 101 % of control | [17] 93 % of control | [18] 93 % of control | [19] 101 % of control

Nc1nc2nc3c(nc2c(=O)[nH]1)CN(c1ccc(C(=O)NC(CCC(=O)O)C(=O)O)cc1)C3=O (stereo not drawn)
inactive: [3] 93 % of control | [5] 95 % of control

Nc1c(C(=O)O)ccc2c1C(=O)c1ccccc1C2=O
inactive: dose: 25.0 mg/kg/injection, schedule: Q04DX003 (ip), vehicle: gum acacia 103 % of control | dose: 50.0 mg/kg/injection, schedule: Q04DX003 (ip), vehicle: gum acacia 100 % of control | dose: 100.0 mg/kg/injection, schedule: Q04DX003 (ip), vehicle: gum acacia 103 % of control and 108 % of control | dose: 200.0 mg/kg/injection, schedule: Q04DX003 (ip), vehicle: gum acacia 97 % of control

COC1OCC(COC(=O)c2ccc([N+](=O)[O-])cc2)C1OC(=O)c1ccc([N+](=O)[O-])cc1 (stereo not drawn)
inactive: [17] 88 % of control | [18] 88 % of control

NC1CCc2ccccc2C(O)C1c1ccccc1 (stereo not drawn)
inactive: [20] 97 % of control | [21] 107 % of control | [22] 105 % of control | [23] 104 % of control | [3] 100 % of control | [4] 102 % of control

O=C(/C(=C/c1ccc2c(c1)OCO2)c1ccccc1)c1ccc(OCCN2CCCC2)cc1
inactive: [17] 95 % of control | [18] 106 % of control | [19] 95 % of control

NC(N)=N/N=C/c1cc([N+](=O)[O-])ccc1O
inactive: dose: 15.0 mg/kg/injection, schedule: Q01DX Z (ip), vehicle: saline 120 % of control | dose: 30.0 mg/kg/injection, schedule: Q01DX Z (ip), vehicle: saline 98 % of control | dose: 60.0 mg/kg/injection, schedule: Q01DX Z (ip), vehicle: saline 98 % of control | dose: 60.0 mg/kg/injection, schedule: Q01DX Z (oral), vehicle: saline 100 % of control | dose: 120.0 mg/kg/injection, schedule: Q01DX Z (ip), vehicle: saline 96 % of control | dose: 120.0 mg/kg/injection, schedule: Q01DX Z (oral), vehicle: saline 96 % of control

C[Si](C)(C)Oc1cc(N=NNC2=CC(=O)c3ccccc3C2=O)c(O)c2ccccc12
inactive: dose: 12.5 mg/kg/injection, schedule: Q04DX003 (ip), vehicle: saline with Tween-80 93 % of control | [21] 93 % of control | [23] 94 % of control | [7] 97 % of control

CC(=O)c1cccc(NC(=O)Oc2ccc3c(C)cc(=O)oc3c2)c1
inactive: [13] 98 % of control | dose: 200.0 mg/kg/injection, schedule: Q01DX009 (ip), vehicle: Klucel (hydroxypropylcellulose) (HPC) 101 % of control | dose: 400.0 mg/kg/injection, schedule: Q01DX009 (ip), vehicle: Klucel (hydroxypropylcellulose) (HPC) 101 % of control

CN(C)N=Nc1ccc2c(c1)C(=O)NC2=O
inactive: [4] 96 % of control | [6] 99 % of control | [7] 99 % of control

CN(C)c1ccc(CNc2ccc(Cl)cc2)cc1
inactive: [14] 91 % of control | [15] 89 % of control | dose: 400.0 mg/kg/injection, schedule: Q04DX003 (ip), vehicle: Klucel (hydroxypropylcellulose) (HPC) 93 % of control

O=C(/C=C/c1ccc(Br)cc1)c1ccc(Cl)cc1
inactive: [3] 96 % of control | [4] 96 % of control | [5] 96 % of control | [6] 91 % of control | dose: 400.0 mg/kg/injection, schedule: Q01DX009 (ip), vehicle: saline with Tween-80 94 % of control | [7] 92 % of control

NC(=S)N/N=C/c1ccc(-c2ccccc2)cc1
inactive: [20] 103 % of control | [22] 113 % of control | [17] 97 % of control | [3] 100 % of control | [18] 103 % of control | [19] 101 % of control
